Results from patent US20060251638A1, “Cytoprotection through the use of hif hydroxylase inhibitors” (priority 2003, published 2006).

Tested on: gene encoding adrenomedullin
Test: Adrenomedullin gene expression in Hep3B cells (microarray)
Type: cell-based, human
Details: 25 μM compound, 6 hrs, average of two determinations
Experimental: Hep3B cells (ATCC No. HB-8064) were grown in DMEM containing 8% fetal bovine serum. Hep3B cells were seeded into 6-well culture dishes at ˜500,000 cells per well. After 8 hours, the media was changed to DMEM containing 0.5% fetal bovine serum and the cells were incubated for an additional 16 hours. Compound A, compound B, compound C, compound G, or compound H was added to the cells (25 μM final concentration) and the cells were incubated for various times. Control cells were incubated with vehicle (DMSO) with no compound treatment. Harvested cells were assessed for cell viability (GUAVA), or added to RNA extraction buffer (RNeasy, Qiagen) and stored at −20° C. for subsequent RNA purification.
RNA was precipitated in 0.3 M sodium acetate (pH 5.2), 50 ng/ml glycogen, and 2.5 volumes of ethanol for one hour at −20° C. Samples were centrifuged and pellets were washed with cold 80% ethanol, dried, and resuspend in water. Double stranded cDNA was synthesized using a T7-(dT)24 first strand primer (Affymetrix, Inc., Santa Clara Calif.) and the SUPERSCRIPT CHOICE system (Invitrogen) according to the manufacturer's instructions. The final cDNA was extracted with an equal volume of 25:24:1 phenol:chloroform:isoamyl alcohol using a PHASE LOCK GEL insert (Brinkman, Inc., Westbury N.Y.). The aqueous phase was collected and cDNA was precipitated using 0.5 volumes of 7.5 M ammonium acetate and 2.5 volumes of ethanol. Alternatively, cDNA was purified using the GENECHIP sample cleanup module (Affymetrix) according to the manufacturer's instructions.
Biotin-labeled cRNA was synthesized from the cDNA in an in vitro […] (IVT) reaction using a BIOARRAY HighYield RNA transcript labeling kit (Enzo Diagnostics, Inc., Farmingdale N.Y.) according to the manufacturer's instructions. Final labeled product was purified and fragmented using the GENECHIP sample cleanup module (Affymetrix) according to the manufacturer's instructions.
Hybridization cocktail was prepared by bringing 5 μg probe to 100 μl in 1× hybridization buffer (100 mM MES, 1 M [Na^+], 20 mM EDTA, 0.01% Tween 20), 100 μg/ml herring sperm DNA, 500 μg/ml acetylated BSA, 0.03 nM contol oligo B2 (Affymetrix), and 1× GENECHIP eukaryotic hybridization control (Affymetrix). The cocktail was sequentially incubated at 99° C. for 5 minutes and 45° C. for 5 minutes, and then centrifuged for 5 minutes. The […] array (Affymetrix) was brought to room temperature and then prehybridized with 1× hybridization buffer at 45° C. for 10 minutes with rotation. The buffer was then replaced with 80 μl hybridization cocktail and the array was hybridized for 16 hours at 45° C. at 60 rpm with counter balance. Following hybridization, arrays were washed once with 6×SSPE, 0.1% Tween 20, and then washed and stained using R-phycoerythrin-conjugated streptavidin (Molecular Probes, Eugene Oreg.), goat anti-streptavidin antibody (Vector Laboratories, Burlingame Calif.), and a GENECHIP Fluidics Station 400 instrument (Affymetrix) according to the manufacturer's EukGE-WS2v4 protocol (Affymetrix). Arrays were analyzed using a GENEARRAY scanner (Affymetrix) and Microarray Suite software (Affymetrix).
RNA quality was monitored by capillary electrophoresis (Agilent Bioanalyzer). […] Array performance was analyzed with Affymetrix MicroArray Suite (MAS) software and individual probe sets were assigned “present”, “marginal, and “absent” calls according to software defaults. […]

Structure (SMILES): O=C(O)CNC(=O)c1ncc2cc(Oc3ccccc3)ccc2c1O [Compound G, [(4-Hydroxy-7-phenoxy-isoquinoline-3-carbonyl)-amino]-acetic acid]
- Adrenomedullin gene expression, fold-increase above non-treated control: 3.278 fold
